Source: patent US10206886B2, “Lipid nanoparticles for wound healing” (Praxis Biopharma Research Institute, priority 2013, dated 2019)

Tested on: HUVEC cells (Human Umbilical Vein Endothelial Cells)
Assay: Proliferation assay with LL37-loaded nanoparticles (CCK-8)
Assay type: cell-based
Conditions: 0.5 and 0.1 μg/ml LL37, after 48 hours, FIG. 6

With “free LL37: Cathelicidin antimicrobial peptide LL37, SEQ ID NO 1 (LLGDFFRKSKEKIGKEFKRIVQRIKDFLRNLVPRTES), non-encapsulated” the “cell proliferation compared with control groups” value was “greater cell proliferation”.
